Reference: US20220168300A1, “Methods of Managing Vascular Conditions and Diabetic Peripheral Neuropathies” (Emory University, priority 2019, published 2022)

How the values were obtained:
[1] = Blood glucose and body weight in diabetic mice; type: in vivo; details: 50 mg/kg/day intraperitoneal for 4 weeks
Protocol: To investigate the preventive therapeutic effects of direct injection of belinostat on diabetic nerves, streptozotocin (STZ)-induced diabetic mice were randomly assigned to solvent-treated (DM) as vehicle controls or HDAC inhibitor-treated (DM+HDACi) groups. […] Belinostat was resuspended in 45% (2-hydroypropyl)-beta-cyclodextrin (HP-β-CD) and injected into mice via the intraperitoneal route at 50 mg/kg/day for 4 weeks.

[2] = system: streptozotocin (STZ)-induced diabetic mice; test: Sensory and motor nerve conduction velocities in diabetic neuropathy model; type: in vivo
Protocol: To investigate the preventive therapeutic effects of direct injection of belinostat on diabetic nerves, streptozotocin (STZ)-induced diabetic mice were randomly assigned to solvent-treated (DM) as vehicle controls or HDAC inhibitor-treated (DM+HDACi) groups. […] After intraperitoneal injection of belinostat or an equal volume of solvent vehicle (HP-β-CD), both sensory and motor nerve conduction velocities (NCVs) were measured for 18 weeks at every week (n=11-14, each group) from 0 week after treatment. Non-diabetic mice, which received solvent vehicle (HP-j-CD), were used as controls (NDM).

[3] = system: streptozotocin (STZ)-induced diabetic mice; test: Tactile allodynia (von Frey hair testing); type: in vivo
Protocol: To investigate the preventive therapeutic effects of direct injection of belinostat on diabetic nerves, streptozotocin (STZ)-induced diabetic mice were randomly assigned to solvent-treated (DM) as vehicle controls or HDAC inhibitor-treated (DM+HDACi) groups. […] To investigate preventive effects of belinostat in diabetic neuropathy, tactile response threshold, thermal withdrawal latency, and rotarod performance were tested. For assay of tactile allodynia, mice were transferred to a glass cage with a wire mesh floor allowing access to the plantar surface of the hind paws. Behavioral accommodation was allowed for approximately 15 min until cage exploration and major grooming activities ceased.

[4] = system: streptozotocin (STZ)-induced diabetic mice; test: Paw thermal withdrawal latency; type: in vivo
Protocol: To investigate the preventive therapeutic effects of direct injection of belinostat on diabetic nerves, streptozotocin (STZ)-induced diabetic mice were randomly assigned to solvent-treated (DM) as vehicle controls or HDAC inhibitor-treated (DM+HDACi) groups. […] For measurement of paw thermal withdrawal latency, mice were placed in an observation chamber on top of the thermal testing apparatus and allowed to acclimate to the warmed glass surface (30° C.) and surroundings for 15 min. The mobile heat source was maneuvered to below the center of the right hind paw and turned on, a process that activates a timer and locally warms the glass surface at a rate of approximately 1° C./s. When the mouse withdrew the paw, movement sensors stopped the timer and turned off the heat source. Right hind paw was measured three times and the mean of three measurements used as a composite source for each mouse. The response latency was converted to the response temperature using a time: floor temperature calibration curve that was constructed each day to allow for day-to-day variations in the surface heating rate.

[5] = system: streptozotocin (STZ)-induced diabetic mice; test: Rotarod performance test; type: in vivo
Protocol: To investigate the preventive therapeutic effects of direct injection of belinostat on diabetic nerves, streptozotocin (STZ)-induced diabetic mice were randomly assigned to solvent-treated (DM) as vehicle controls or HDAC inhibitor-treated (DM+HDACi) groups. […] For rotarod performance test, mice were placed on a rotarod apparatus to assess motor coordination and physical condition. Before the training session, each mouse was habituated to stay on the spindle with slow constant speed for 5 min. Mice were trained for 5 min at 45 rpm before measurement. The horizontal rod rotating by 45 rpm and the maximal length of observation time for each trial was 5 min.

[6] = system: streptozotocin (STZ)-induced diabetic mice; test: Vascularization of sciatic nerves (FITC-conjugated BSL1); type: in vivo; details: DM+HDACi, 18 weeks after treatment
[7] = system: streptozotocin (STZ)-induced diabetic mice; test: Intraepidermal nerve fiber density (PGP9.5 staining) in hind paw plantar skin; type: in vivo; details: DM+HDACi group
Description: To investigate the preventive therapeutic effects of direct injection of belinostat on diabetic nerves, streptozotocin (STZ)-induced diabetic mice were randomly assigned to solvent-treated (DM) as vehicle controls or HDAC inhibitor-treated (DM+HDACi) groups. […] To evaluate the protective effect of belinostat on diabetic intraepidermal nerve fiber, we stained IENF in hind paw plantar skin with pan-neuronal marker PGP9.5 and counted the number of fibers throughout the epidermis relative to length of tissue.

[8] = system: streptozotocin (STZ)-induced diabetic mice; test: Light and electron microscopy of sciatic nerve myelinated fibers; type: in vivo; details: DM+HDACi
Description: To investigate the preventive therapeutic effects of direct injection of belinostat on diabetic nerves, streptozotocin (STZ)-induced diabetic mice were randomly assigned to solvent-treated (DM) as vehicle controls or HDAC inhibitor-treated (DM+HDACi) groups. […] It was examined whether belinostat could affect the ultrastructure of diabetic nerves, which is characterized by morphological alterations in the myelin sheath, a hallmark of DN. Accordingly, light microscopy and transmission electron microscopy were performed on sciatic nerves obtained at 18 weeks after STZ injection. The alternation of myelination pattern was categorized into four groups: decompaction, infolding, focal lysis, and splitting. […] Axonal atrophy is associated with slowing of nerve conduction but is difficult to distinguish from loss of large diameter axons. A reduced index of circularity and an increased g-ratio supports the axonal atrophy. […] A loss of large diameter axons in the peripheral nerve system is the most frequent consequence of metabolic diseases such as diabetes.

[9] = system: HUVECs, Schwann cells (S16), and DRG neurons (ND7/23); test: Quantitative RT-PCR of gene expression in cells cultured in diabetic (high glucose) condition; details: in vitro experimental data using cells
Protocol: To determine effects of different types of HDAC inhibitors on different target cells, cells were cultured in diabetic condition (450 mg/dl glucose, 7 days) and were treated HDAC inhibitors for 7 days.

[10] = leading to increases in H3/H4 acetylation in brain tissue; cited from earlier work
Diabetic EPCs (D-EPCs) = test: DNA methylation (MSRE-PCR) and gene expression of angiogenic genes in D-EPCs; type: cell-based, rat
Description: Rescue of epigenetic silencing of angiogenic genes in D-EPCs Diabetic EPCs (D-EPCs) have high methylation in the promoter regions of key angiogenic and neurotrophic genes and small molecular epigenetic regulators can reverse these changes, increase gene expression and improve cellular functions. To prepare D-EPCs streptozotocin (STZ) was used to induce diabetic conditions. Differential expression of angiogenic genes was investigated between normal EPCs (N-EPCs) and D-EPCs using an Angiogenesis Microarray kit. The expression of many angiogenic genes was suppressed in D-EPCs. In this disclosure, histone deacetylase (HDAC) inhibitors, i.e., Vorinostat (Zolinza, SAHA), Belinostat (Beleodaq, PXD-101), and Quisinostat (JNJ-26481585), were used. The preliminary experiments were performed using rat EPCs as well as human and rat MSCs. To test the reversible changes of gene expression and epigenetic modifications in D-EPCs by small molecule epigenetic regulators, epigenetic profiling studies were performed using methylation-sensitive restriction enzyme (MSRE)-PCR assays. An HDAC inhibitor, valproic acid (VPA), was used as the epigenetic regulator.

[11] = sciatic nerve 18 weeks after STZ, n=406
[12] = sciatic nerve, P<0.001 versus DM

**Q.** What does the source list for `O=C(/C=C/c1cccc(S(=O)(=O)Nc2ccccc2)c1)NO` [Belinostat, (E)-N-hydroxy-3-[3-(phenylsulfamoyl)phenyl]prop-2-enamide]?
**A.** blood glucose levels and animal body weight compared to DM group [1]: did not significantly alter; sensory NCV ([2]; DM+HDACi group, over 15 weeks, 50 mg/kg/day i.p. for 4 weeks, P<0.001 versus DM): 34.76±0.61 m/s; motor NCV ([2]; DM+HDACi group, over 15 weeks, 50 mg/kg/day i.p. for 4 weeks, P<0.05 versus DM): 51.15±2.60 m/s; nerve conduction velocities (NCVs), effect in words ([2]; FIG. 1A, direct injection, diabetic mice): improved; motor NCVs, effect in words ([2]; FIG. 1B, diabetic mice over 15 weeks): significantly improved; paw withdrawal threshold (von Frey) ([3]; DM+HDACi group at 3 weeks of diabetes): 0.15 ± 0.09 g; paw withdrawal threshold (von Frey) ([3]; DM+HDACi group at 14 weeks after HDAC inhibitor injection, P<0.001 versus DM): 1.33 ± 0.30 g; paw withdrawal thresholds, effect in words ([3]; FIG. 2A, 14 weeks after belinostat injection): recovered to nondiabetic group; paw withdrawal temperature ([4]; DM+HDACi group at 12 weeks of diabetes, P<0.001 versus DM): 34.30±0.24 °C; thermal withdrawal latency, effect in words ([4]; FIG. 2B, HDAC treated group): maintained; rotarod fall latency ([5]; DM+HDACi group, 45 rpm, max 5 min): 254.77 ± 25.23 s; rotarod performance, DM versus DM+HDACi ([5]; FIG. 2C): no significant difference; vascularity in sciatic nerves [6]: increased vascularity; number of intraepidermal nerve fibers (IENF) [7]: 30.61±1.83 IENF/mm; g-ratio of myelinated sciatic nerve [8]: 0.65±0.0044; reduction of axonal circularity compared to NDM ([8]; sciatic nerve): 10.3%; altered myelination pattern: decompaction [8, 11]: 6.35%; altered myelination pattern: focal lysis [8, 11]: 7.22%; altered myelination pattern: infolding [8, 11]: 1.49%; altered myelination pattern: splitting [8, 11]: 0%; axon diameter of myelinated axons [8, 12]: 4.17 ± 0.1 µm; index of circularity of axon [8, 12]: 0.70; upregulation of gene expression in vitro, compared to vorinostat and quisinostat [9]: superior properties

**Q.** With `O=C(CCCCCCC(=O)Nc1ccccc1)NO` [SAHA, suberoylanilide hydroxamic acid] as the molecule, how does the “blood-brain-barrier (BBB) crossing” value [10] read?
**A.** can cross the blood-brain-barrier

**Q.** With `CCCC(CCC)C(=O)O` [VPA, valproic acid] as the molecule, how does the angiogenic gene expression (Diabetic EPCs (D-EPCs)) read?
**A.** enhanced gene expression

**Q.** And the “DNA methylation at promoters of angiogenic genes” value (Diabetic EPCs (D-EPCs); MSRE-PCR)?
**A.** reduced DNA methylation
